According to ChEMBL document CHEMBL1147625, “HIV-1 integrase pharmacophore model derived from diverse classes of inhibitors” (Bioorg Med Chem Lett, 2004):

Target: Human immunodeficiency virus type 1 integrase (Human immunodeficiency virus 1, UniProt Q7ZJM1)
Sequence (Q7ZJM1 whole entry): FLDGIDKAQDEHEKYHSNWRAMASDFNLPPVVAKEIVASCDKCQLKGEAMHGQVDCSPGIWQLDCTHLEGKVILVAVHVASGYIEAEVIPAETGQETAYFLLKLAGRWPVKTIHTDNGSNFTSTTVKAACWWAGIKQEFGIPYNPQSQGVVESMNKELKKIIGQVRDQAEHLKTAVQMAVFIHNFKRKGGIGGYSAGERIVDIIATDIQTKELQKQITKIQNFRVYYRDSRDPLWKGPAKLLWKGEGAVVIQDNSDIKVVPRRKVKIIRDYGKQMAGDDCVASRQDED
Description: Inhibitory activity against HIV-1 integrase

| SMILES | IC50 [µM] |
| --- | --- |
| CC1C=C(NC(=O)C2=CC(NC(=O)C3=CC(NC(=O)c4ccc(C(=O)NC5=CC(C)C(C(=O)NC6=CC(C)C(C(=O)NC7=CC(C)C(C(=O)NCCC(=N)N)=C7)=C6)=C5)nc4)=CC3C)=CC2C)C=C1C(=O)NCCC(=N)N (stereo not drawn) | 0.1 |
| O=C(O)C(=O)/C=C(\O)c1cc(OCc2ccccc2)cc(OCc2ccccc2)c1 | 0.059 |
| CC1C=C(NC(=O)C2=CC(NC(=O)C3=CC(N(C)C(=O)c4ccc(C(=O)N(C)C5=CC(C)C(C(=O)NC6=CC(C)C(C(=O)NC7=CC(C)C(C(=O)NCCCN(C)C)=C7)=C6)=C5)cc4)=CC3C)=CC2C)C=C1C(=O)NCCCN(C)C (stereo not drawn) | 0.07 |
| [N-]=[N+]=NC1CC(N=[N+]=[N-])c2cc(/C(O)=C\C(=O)C(=O)O)ccc21 (stereo not drawn) | 0.36 |
| O=C1C(O)=C(C(C2=C(O)C(=O)c3ccccc3C2=O)c2ccc(Cl)cc2)C(=O)c2ccccc21 | > 100 |
| O=C(/C=C/c1ccc(O)c(O)c1)NCC(OC(=O)/C=C/c1ccc(O)c(O)c1)C(=O)O (stereo not drawn) | 0.37 |
| CC1C=C(NC(=O)C2=CC(NC(=O)C3=CC(NC(=O)c4ccc(C(=O)NC5=CC(C)C(C(=O)NC6=CC(C)C(C(=O)NC7=CC(C)C(C(=O)NCCC(=N)N)=C7)=C6)=C5)cc4)=CC3C)=CC2C)C=C1C(=O)NCCC(=N)N (stereo not drawn) | 0.09 |
| CC(Cc1ccc(O)c(O)c1)(C(=O)O)C(C)(Cc1ccc(O)c(O)c1)C(=O)O (stereo in doubt; form 1) | 0.44 |
| CC(Cc1ccc(O)c(O)c1)(C(=O)O)C(C)(Cc1ccc(O)c(O)c1)C(=O)O (stereo in doubt; form 2) | 0.23 |
| [N-]=[N+]=NC1CCC(N=[N+]=[N-])c2cc(/C(O)=C\C(=O)C(=O)O)ccc21 (stereo not drawn) | 0.32 |
| CN(C)Cc1ccc2n1Cc1ccccc1SC2c1ccc(F)cc1 (stereo not drawn) | 1000 |
| CC(CCC(=O)O)C1CC[C@H]2[C@@H]3C(OC(=O)/C=C/c4ccc(O)c(O)c4)CC4CC(OC(=O)/C=C/c5ccc(O)c(O)c5)CC[C@]4(C)[C@H]3CC(OC(=O)/C=C/c3ccc(O)c(O)c3)[C@]12C (stereo partly drawn) | 0.97 |
| O=C1c2ccccc2SCC2CSC(c3ccccc3)N12 (stereo not drawn) | 322 |

Other lines, results leading:

| IC50 [µM] | SMILES |
| --- | --- |
| 0.6 | COc1ccc(/C=C2\C(=O)N(C(=O)c3ccccc3O)N=C2C)cc1 |
| 2.1 | COc1cc(C)c2c(c1C)OC(=O)c1c(C)c(Cl)c(O)c(C=O)c1O2 |
| 20 | COc1cc(C(C2=C(O)C(=O)c3ccccc3C2=O)C2C(=O)c3ccccc3C(=O)C2O)cc(Br)c1O (stereo not drawn) |
| 123 | COC(=O)c1ccc(CC(=O)c2c(C)cc(O)c(C=O)c2O)c(C)c1O |
| > 293 | CC1=NN(C(=O)c2ccc(Cl)cc2)C(=O)/C1=C\c1ccc(O)cc1 |
| 33.6 | CCCCCc1cc(O)cc2c1Oc1c(C=O)c(O)c(Cl)c(C(=O)CCCC)c1C(=O)O2 |
| 1.5 | N#CCCc1cccc(/C(O)=C\C(=O)C(=O)O)c1 |
| > 200 | O=C(NNCC(O)COc1ccccc1)c1ccccc1O (stereo not drawn) |
| 7.4 | CC1=NN(C(=O)c2ccccc2O)C(=O)/C1=C\c1cccc(O)c1 |
| 0.26 | [N-]=[N+]=NCc1ccc(/C(O)=C\C(=O)C(=O)O)cc1CN=[N+]=[N-] |
